Results: article PMC7010297, “How the initiating ribosome copes with ppGpp to translate mRNAs” (PLoS Biology, 2020)
Values joined by “and” are separate entries in the source; they are usually repeats but may differ in a detail not shown here. Equal entries are not always repeated. Where two headings read alike, the source gives them in different places.

What was measured:
[1] = target: T1, IF2-bound 30S IC (Escherichia coli, UniProt P0A705); assay: 30S IC formation by MST, guanosine nucleotide titration; assay type: binding; settings: for Kd: Fig 3F, GTP titration;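 as to MST Average: lower thermophoresis signal means Bpy-tRNAi dissociation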;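 as to MST Replicates (a.u.): lower thermophoresis signal means Bpy-tRNAi dissociation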
T1 construct: 6xHis (N); made in house
Excerpt: To monitor the interaction of initiator tRNA and 30S ribosomal subunits, we used Microscale Thermophoresis (MST) with a fluorescently labelled initiator tRNA (Bpy-tRNAi) (Fig 1B). MST allows to measure fluorescence in a constrained space. Changes on the readout derive from molecular drifts resulting from small thermal equilibrium perturbations. Upon equilibrium perturbations, the patterns of Bpy-tRNAi migration away from the observation space are related to bound and unbound states (Fig 1B). […] On the contrary, a decrease in thermophoresis indicated the dissociation of Bpy-tRNAi. The relation between fluorescence measured at both equilibriums (Ff to Fi, after and prior to the perturbation, respectively) as a function of ligand concentration allowed to determine dissociation constants of the interaction (Fig 1C).
(§1) Continuous lines indicate nonlinear regression fittings with a quadratic equation. Three measurements were performed; mean and standard deviation are plotted (S1 Data). (B) as (A) to measure the concentration dependence for each tested guanosine nucleotide at constant IF2 (1 μM). […] Continuous lines show best fits using exponential functions. (D) Formation of 70S IC as measured by Bpy-tRNAi accommodation in the P site of the ribosome; 0.1 μM 30S ICs were formed with Bpy-tRNAi and rapidly mixed with 0.3 μM 50S subunits on a stopped-flow apparatus as described in [14]. Colors are as in (C). Continuous lines show best fits using an exponential function for a single reaction step. Each stopped-flow trace results from the mean of 5 to 7 replicates.
MST was calculated from the respective fluorescence time dependencies (S3 Fig). […] Symbols as in (B). […] Continuous lines indicate nonlinear regression fittings with quadratic (B and E) or same-site competition (G) functions. Three measurements were performed; mean and standard deviations are plotted (S1 Data).

[2] = target: T2, 70S IC (Escherichia coli, UniProt P0A705); assay: 70S IC formation by Bpy-tRNAi accommodation, stopped-flow; assay type: biochemical; design: K1, best-fit value: unit not given here; settings: for A0, best-fit value / A1, best-fit value / K1, best-fit value / k2, best-fit value: fit Y=A0+A1*exp(-K1*x)+k2*x; for kfast (s-1) Avg: fluorescence
T2 construct: 6xHis (N); made in house
Protocol: as §1
(A) Scheme of 70S IC formation. […] Time traces were analyzed by nonlinear regression with exponential terms. […] Formation of 70S IC, as measured by Bpy-tRNAi accommodation in the absence (F) or presence of 200 μM ppGpp (G). Time traces were analyzed by nonlinear regression with one exponential term. […] Continuous lines show best fits using an exponential function for a single reaction step. All time traces are mean values of 5 to 10 replicates. Bar graphs show mean and standard errors (error bars) derived from the nonlinear regression fitting (D,E,H,I) (S1 Data).
To measure 70S pre-IC formation, a SX-20 stopped-flow instrument (Applied Photophysics, Leatherhead, UK) was set up for LS recording with an excitation wavelength of 430 nm. Scattered light was measured at an angle of 90° without a filter. Pseudo first-order conditions were approximated by using ≥3-fold excess of 50S subunits over 30S ICs; 0.2 μM 30S ICs were rapidly mixed in the instrument with 0.6 μM 50S at 25 °C. Bpy-tRNAi accommodation was measured essentially as described elsewhere. Briefly, 0.2 μM 30S ICs were formed using Bpy-tRNAi and rapidly mixed with 0.6 μM 50S at 25 °C. Fluorescence was excited at 470 nm and measured after a 495-nm longpass filter. Individual traces (6–11 traces) were averaged, and the resulting kinetic curve was approximated by single (F = A0 + A1*exp (-kapp1*t)) or double (F = A0 + A1*exp (-kapp1*t) + A2*exp (-kapp2*t)) exponential fit using Graphpad Prism 6.0 software (GraphPad, San Diego, California).

[3] = target: T3, IF2 (Escherichia coli, UniProt P0A705); assay: IF2-Bpy-tRNAi-GNP ternary complex formation by MST; assay type: binding; settings: S2A Fig
T3 construct: 6xHis (N); made in house
Protocol: Supplementary file pbio.3000593.s002.pdf: S2 Fig IF2-Bpy-tRNAi complex formation as a function of guanosine nucleotides. (A) IF2 concentration dependencies for Bpy-tRNAi binding in the presence of 0.5 mM of the indicated guanosine nucleotides to build IF2-tRNA-GNP ternary complexes (TCs). […] Three to five measurements were performed; mean and standard deviation are plotted (S1 Data). […] (PDF) Click here for additional data file.

[4] = Fig 2B (GDP/ppGpp series), nucleotide 0.25 µM
[5] = Fig 2B (GDP/ppGpp series), nucleotide 0.50 µM
[6] = Fig 2B (GDP/ppGpp series), nucleotide 1.00 µM
[7] = Fig 2B (GDP/ppGpp series), nucleotide 2.00 µM
[8] = Fig 2B (GDP/ppGpp series), nucleotide 4.00 µM
[9] = Fig 2B (GDP/ppGpp series), nucleotide 8.00 µM
[10] = Fig 2B (GDP/ppGpp series), nucleotide 16.00 µM
[11] = Fig 2B (GDP/ppGpp series), nucleotide 31.00 µM
[12] = Fig 2B (GDP/ppGpp series), nucleotide 62.00 µM
[13] = Fig 2B (GDP/ppGpp series), nucleotide 125.00 µM

T2 sequence (P0A705 whole entry, looked up): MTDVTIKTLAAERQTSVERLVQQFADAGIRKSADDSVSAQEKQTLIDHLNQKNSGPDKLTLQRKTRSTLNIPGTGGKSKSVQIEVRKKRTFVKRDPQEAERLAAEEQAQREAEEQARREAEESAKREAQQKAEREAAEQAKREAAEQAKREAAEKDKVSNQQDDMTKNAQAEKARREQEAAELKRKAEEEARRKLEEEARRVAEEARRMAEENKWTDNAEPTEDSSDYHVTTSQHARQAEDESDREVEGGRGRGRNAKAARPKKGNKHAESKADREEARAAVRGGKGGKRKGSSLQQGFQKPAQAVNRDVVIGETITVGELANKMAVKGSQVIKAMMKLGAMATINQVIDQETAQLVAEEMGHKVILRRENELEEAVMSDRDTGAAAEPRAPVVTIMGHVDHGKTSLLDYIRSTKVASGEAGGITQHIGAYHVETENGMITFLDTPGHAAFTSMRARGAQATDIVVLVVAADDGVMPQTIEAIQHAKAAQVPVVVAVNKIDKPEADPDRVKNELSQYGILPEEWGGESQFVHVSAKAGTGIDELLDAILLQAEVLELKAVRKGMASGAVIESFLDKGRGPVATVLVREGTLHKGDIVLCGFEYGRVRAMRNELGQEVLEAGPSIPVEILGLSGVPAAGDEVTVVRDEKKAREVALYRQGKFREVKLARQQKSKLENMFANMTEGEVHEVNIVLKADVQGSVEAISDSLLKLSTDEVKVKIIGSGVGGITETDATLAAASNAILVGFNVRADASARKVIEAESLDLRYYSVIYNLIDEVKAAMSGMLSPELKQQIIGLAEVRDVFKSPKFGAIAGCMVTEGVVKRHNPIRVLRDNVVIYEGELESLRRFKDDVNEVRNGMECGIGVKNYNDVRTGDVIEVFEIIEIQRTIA
T1 sequence (P0A705 whole entry, looked up): as above
T3 sequence (P0A705 whole entry): as the sequence (P0A705 whole entry, looked up) above

Molecule: Nc1nc2c(ncn2[C@@H]2O[C@H](COP(=O)(O)OP(=O)(O)O)[C@@H](O)[C@H]2O)c(=O)[nH]1 [GDP, guanosine diphosphate]
- MST Average ([1]; Fig 2B (GDP/ppGpp series), nucleotide 0.13 µM): 933.71 a.u.
- MST Replicates (a.u.) ([1]; Fig 2B (GDP/ppGpp series), nucleotide 0.13 µM, constant IF2 (1 μM)): 931.66 a.u. and 934.22 a.u. and 933.66 a.u. and 935.28 a.u.
- MST Average [1, 4]: 934.55 a.u.
- MST Replicates (a.u.) [1, 4]: 933.08 a.u. and 934.64 a.u. and 934.32 a.u. and 936.15 a.u.
- MST Average [1, 5]: 935.70 a.u.
- MST Replicates (a.u.) [1, 5]: 933.41 a.u. and 935.59 a.u. and 935.81 a.u. and 937.99 a.u.
- MST Average [1, 6]: 937.58 a.u.
- MST Replicates (a.u.) [1, 6]: 936.31 a.u. and 938.31 a.u. and 936.76 a.u. and 938.95 a.u.
- MST Average [1, 7]: 940.10 a.u.
- MST Replicates (a.u.) [1, 7]: 938.98 a.u. and 940.66 a.u. and 939.47 a.u. and 941.28 a.u.
- MST Average [1, 8]: 942.84 a.u.
- MST Replicates (a.u.) [1, 8]: 941.71 a.u. and 943.61 a.u. and 942.43 a.u. and 943.60 a.u.
- MST Average [1, 9]: 945.64 a.u.
- MST Replicates (a.u.) [1, 9]: 944.41 a.u. and 946.59 a.u. and 945.06 a.u. and 946.52 a.u.
- MST Average [1, 10]: 952.27 a.u.
- MST Replicates (a.u.) [1, 10]: 951.48 a.u. and 953.11 a.u. and 951.45 a.u. and 953.06 a.u.
- MST Average [1, 11]: 953.23 a.u.
- MST Replicates (a.u.) [1, 11]: 951.79 a.u. and 954.63 a.u. and 951.76 a.u. and 954.74 a.u.
- MST Average [1, 12]: 952.59 a.u.
- MST Replicates (a.u.) [1, 12]: 952.17 a.u. and 953.16 a.u. and 951.66 a.u. and 953.37 a.u.
- MST Average [1, 13]: 950.10 a.u.
- MST Replicates (a.u.) [1, 13]: 949.56 a.u. and 950.68 a.u. and 949.29 a.u. and 950.89 a.u.
- promotion of Bpy-tRNAi binding (thermophoresis) in guanosine nucleotide titration ([1]; constant IF2 (1 μM)): failed to promote Bpy-tRNAi binding at any concentration
- efficiency (amplitude) of 70S IC formation (Bpy-tRNAi accommodation) ([2]; 0.2 mM nucleotide, no GTP): reduced efficiencies
- A0, best-fit value ([2]; mInfA): 0.98
- A1, best-fit value ([2]; mInfA): 0.0231
- K1, best-fit value ([2]; mInfA): 1.28
- k2, best-fit value ([2]; mInfA): -0.00069
- A0, best-fit value ([2]; mMF1): 0.93
- A1, best-fit value ([2]; mMF1): 0.07
- K1, best-fit value ([2]; mMF1): 1.57
- k2, best-fit value ([2]; mMF1): -0.00092
- Fluorescence Amplitude Avg ([2]; mRNA mInfA): 0.023
- kfast (s-1) Avg ([2]; mRNA mInfA): 1.28 s⁻¹
- Fluorescence Amplitude Avg ([2]; mRNA mMF1): 0.067
- kfast (s-1) Avg ([2]; mRNA mMF1): 1.57 s⁻¹
- Fluorescence Amplitude Avg ([2]; mRNA mTufA): 0.062
- kfast (s-1) Avg ([2]; mRNA mTufA): 2.65 s⁻¹
- A0, best-fit value ([2]; mTufA): 0.94
- A1, best-fit value ([2]; mTufA): 0.06
- K1, best-fit value ([2]; mTufA): 2.65
- k2, best-fit value ([2]; mTufA): -0.00072
- MST Average ([3]; IF2 0.08 µM): 942.60 a.u.
- MST Replicates ([3]; IF2 0.08 µM): 949.60 a.u. and 944.98 a.u. and 933.23 a.u.
- MST Average ([3]; IF2 0.16 µM): 942.82 a.u.
- MST Replicates ([3]; IF2 0.16 µM): 948.93 a.u. and 934.15 a.u. and 945.38 a.u.
- MST Average ([3]; IF2 0.31 µM): 943.82 a.u.
- MST Replicates ([3]; IF2 0.31 µM): 946.47 a.u. and 934.49 a.u. and 950.50 a.u.
- MST Average ([3]; IF2 0.63 µM): 944.11 a.u.
- MST Replicates ([3]; IF2 0.63 µM): 935.16 a.u. and 946.20 a.u. and 950.97 a.u.
- MST Average ([3]; IF2 1.25 µM): 945.61 a.u.
- MST Replicates ([3]; IF2 1.25 µM): 951.42 a.u. and 947.72 a.u. and 937.68 a.u.
- MST Average ([3]; IF2 2.50 µM): 948.90 a.u.
- MST Replicates ([3]; IF2 2.50 µM): 941.84 a.u. and 953.50 a.u. and 951.35 a.u.
- MST Average ([3]; IF2 5.00 µM): 954.49 a.u.
- MST Replicates ([3]; IF2 5.00 µM): 948.07 a.u. and 955.91 a.u. and 959.48 a.u.
- MST Average ([3]; IF2 10.00 µM): 962.55 a.u.
- MST Replicates ([3]; IF2 10.00 µM): 958.33 a.u. and 964.33 a.u. and 964.97 a.u.
- MST Average ([3]; IF2 20.00 µM): 973.27 a.u.
- MST Replicates ([3]; IF2 20.00 µM): 973.71 a.u. and 974.19 a.u. and 971.91 a.u.
- MST Average ([3]; IF2 40.00 µM): 980.27 a.u.
- MST Replicates ([3]; IF2 40.00 µM): 984.66 a.u. and 983.20 a.u. and 972.95 a.u.

B1: mTufA: TufA mRNA with full-length 5′ UTR, in vitro transcribed, codes for EF-Tu (nucleic acid)
chain: GGUUCUAUCGCCUUUAAAGAAGGCUUUAAGAAAGCGAAACCAGUUCUGCUUGAGCCGAUCAUGAAGGUUGAAGUAGAAACUCCGGAAGAGAACACCGGUGACGUUAUCGGUGACUUGAGCCGUCGUCGUGGUAUGCUCAAAGGUCAGGAAUCUGAAGUUACUGGCGUUAAGAUCCACGCUGAAGUACCGCUGUCUGAAAUGUUCGGAUACGCAACUCAGCUGCGUUCUCUGACCAAAGGUCGUGCAUCAUACACUAUGGAAUUCCUGAAGUAUGAUGAAGCGCCGAGUAACGUUGCUCAGGCCGUAAUUGAAGCCCGUGGUAAAUAAGCCUAAGGGUUAAUACCAAAGUCCCGUGCUCUCUCCUGAAGGGGAGAGCACUAUAGUAAGGAAUAUAGCCGUGUCUAAAGAAAAAUUUGAACG
- MST Average ([1]; GTP 0.49 μM, Fig 6E): 1014.52 a.u.
- MST Replicates ([1]; GTP 0.49 μM, Fig 6E): 1011.10 a.u. and 1014.70 a.u. and 1017.78 a.u.
- MST Average ([1]; GTP 1.95 μM, Fig 6E): 1035.39 a.u.
- MST Replicates ([1]; GTP 1.95 μM, Fig 6E): 1032.39 a.u. and 1034.94 a.u. and 1038.85 a.u.
- MST Average ([1]; GTP 3.91 μM, Fig 6E): 1049.68 a.u.
- MST Replicates ([1]; GTP 3.91 μM, Fig 6E): 1044.99 a.u. and 1049.25 a.u. and 1054.80 a.u.
- MST Average ([1]; GTP 7.81 μM, Fig 6E): 1070.36 a.u.
- MST Replicates ([1]; GTP 7.81 μM, Fig 6E): 1070.17 a.u. and 1070.71 a.u. and 1070.18 a.u.
- Kd ([1]; read-out: Kd (μM) of GTP for the 30S IC programmed with the labelled mRNA, Average): 0.28 µM
- Kd ([1]; read-out: Kd (μM) of GTP for the 30S IC programmed with the labelled mRNA, single replicate): 0.3 µM and 0.27 µM
